According to patent US7759331B2, “Pyridine-containing macroheterococylic compounds as kinase inhibitors” (Janssen Pharmaceutica NV, priority 2006, dated 2010):
Several values for one entry are separate records, joined by “and”; a condition that tells them apart may be missing. Equal values may be shown once.

Each molecule was assayed against GSK3β(h) (Homo sapiens, UniProt P49841) (assay: Glycogen Synthase Kinase-3 Assay). Details: assay run three times for each compound; each run's value listed.
Chain of GSK3β(h) (P49841 whole entry): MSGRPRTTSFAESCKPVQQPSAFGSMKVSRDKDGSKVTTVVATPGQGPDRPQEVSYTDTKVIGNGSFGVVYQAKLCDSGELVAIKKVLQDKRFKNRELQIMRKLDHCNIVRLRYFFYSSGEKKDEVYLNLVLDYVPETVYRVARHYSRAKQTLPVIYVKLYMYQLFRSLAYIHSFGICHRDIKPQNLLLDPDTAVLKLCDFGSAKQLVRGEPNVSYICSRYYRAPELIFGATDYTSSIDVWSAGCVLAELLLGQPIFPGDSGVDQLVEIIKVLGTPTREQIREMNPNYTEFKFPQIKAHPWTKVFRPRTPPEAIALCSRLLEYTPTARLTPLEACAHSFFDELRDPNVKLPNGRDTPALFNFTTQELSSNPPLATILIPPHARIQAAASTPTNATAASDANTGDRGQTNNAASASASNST
Assay type: biochemical
Method: Compounds were tested for the ability to inhibit GSK-3β protein. Briefly, in a final reaction volume of 25 μL, GSK-3β (h) (5-10 mU) was incubated with 8 mM MOPS pH 7.0, 0.2 mM EDTA, 20 μM […](p)EDEEE (phospho GS2 peptide), 10 mM Mg Acetate and [γ-^33P-ATP] (specific activity approx. 500 cpm/pmol, concentration as required). The reaction was initiated by the addition of the MgATP mix. After incubation for 40 minutes at room temperature, the reaction was stopped by the addition of 5 μL of a 3% phosphoric acid solution. 10 μL of the reaction was then spotted onto a P30 filtermat and washed three times for 5 minutes in 50 mM phosphoric acid and once in methanol prior to drying and scintillation counting.
The GSK-3β assay was run three times for each compound.

IC50	Compound
0.0055 µM and 0.0529 µM and 0.0521 µM	CN(C)c1nc2ccc1CCCn1cc(c3ccccc31)C1=C(C(=O)NC1=O)c1cn(c3ccccc13)CCC2 [Cpd 3, 31-(dimethylamino)-5,15,25,30-tetraazaheptacyclo[27.2.2.1^5,12.1^18,25.0^6,11.0^13,17.0^19,24]pentatriaconta-1(31),6,8,10,12(35),13(17),18(34),19,21,23,29,32-dodecaene-14,16-dione]
0.01 µM and 0.021 µM and 0.0535 µM	Cc1ccc(-c2cc3cc(n2)CCCn2cc(c4ccccc42)C2=C(C(=O)NC2=O)c2cn(c4ccccc24)CCC3)cc1 [Cpd 4, 20-(4-methylphenyl)-4,14,19,26-tetraazaheptacyclo[24.6.1.1^7,14.1^18,22.0^2,6.0^8,13.0^27,32]pentatriaconta-1(33),2(6),7(35),8,10,12,18(34),19,21,27,29,31-dodecaene-3,5-dione]
0.024 µM and 0.0193 µM and 0.0298 µM	O=C1NC(=O)C2=C1c1cn(c3ccccc13)CCCCc1ccc(c(N3CCCC3)n1)CCCCn1cc2c2ccccc21 [Cpd 5, 33-pyrrolidin-1-yl-6,16,26,32-tetraazaheptacyclo[29.2.2.1^6,13.1^19,26.0^7,12.0^14,18.0^20,25]heptatriaconta-1(33),7,9,11,13(37),14(18),19(36),20,22,24,31,34-dodecaene-15,17-dione]
